According to paper PMC3997423, “Identification and HLA-Tetramer-Validation of Human CD4^+ and CD8^+ T Cell Responses against HCMV Proteins IE1 and IE2” (PLoS ONE, 2014):
Where no end group is shown, it is not given here.

Key:
HLA-DRB3*01:01 = target: T1, HLA-DRB3*01:01 (Homo sapiens, UniProt P01903+P79483); assay: Peptide-HLA class II binding affinity; details: recombinant HLA class II α- and β-chains refolded with graded peptide, 48 h, 18°C; LOCI; ED50; read-out: Measured affinity
T1 construct: made in house
Procedure: (§1) Peptide-HLA class I and II binding affinities were determined as previously described [44], [45].
(§2) Complex formation was detected using a proximity-based Luminescent Oxygen Channeling Immunoassay assay and the peptide concentration leading to half-saturation (ED50) was determined as previously described [44], [45]. Under the limited receptor concentrations used here, the ED50 reflects the affinity of the interaction.

HLA-DRB1*03:01 = HLA-DRB1*03:01 (Homo sapiens, UniProt P01903+P01911, A100K/A102G/A103R/A169T/F55Y/I96L/K41T/L162R/M171V/P40S/Q125H/Q178H/Q39Y/R42S/S66N/T106N/T262R/W38E/Y61H); assay: Peptide-HLA class II binding affinity; details: recombinant HLA class II α- and β-chains refolded with graded peptide, 48 h, 18°C; LOCI; ED50; read-out: Measured affinity
Procedure: as §1, §2
HLA-DRB1*07:01 = HLA-DRB1*07:01 (Homo sapiens, UniProt P01903+P01911, A100R/A102G/A103Q/D57E/D86V/E43K/F76Y/K127E/L162R/M171V/P40G/Q125H/Q99D/R33Q/R42Y/R54Q/S133A/S66F/T210M/V115G/Y107V/Y59L/Y89S); assay: Peptide-HLA class II binding affinity; details: read-out: measured affinity
Procedure: as §1, §2
HLA-DRB1*15:01 = HLA-DRB1*15:01 (Homo sapiens, UniProt P01903+P01911); assay: Peptide-HLA class II binding affinity; details: read-out: measured affinity
Procedure: as §1, §2
HLA-DRB1*01:01 = HLA-DRB1*01:01 (Homo sapiens, UniProt P01903+P01911, A100R/D57E/F55L/F60I/F76Y/I96L/L162R/M171V/P40L/Q125E/R42F/V115G/Y59C); assay: Peptide-HLA class II binding affinity; details: read-out: measured affinity
Procedure: as §1, §2

CD8^+ T cells = assay: Ex vivo peptide-HLA class I tetramer staining; type: cell-based, human; details: peptide-C*07:02 tetramer, responding donors
Procedure: To tetramerize the resulting peptide-HLA class I monomers, Streptavidin-PE or Streptavidin-APC (Biolegend, San Diego, USA) was sequentially added over 60 min at a 1∶4 molar ratio of Streptavidin to peptide-HLA-I monomers. PBMCs were resuspended in 25 µl PE- and APC-conjugated tetramer and incubated for 20 min at RT followed by 30 min incubation with anti-CD3-Pacific blue, anti-CD4-APC/Cy7, and anti-CD8-PerCP antibody (Biolegend, San Diego, USA).
HLA-B*40:01 = HLA-B*40:01 (Homo sapiens, UniProt P01889, A65T/A93T/A95T/D138N/D98Y/E176V/E69K/N87E/Q56L/Q94N/R180L/S121R/S35A/S48T/T167S/V36M/W171L/Y33H/Y91S); assay: Peptide-HLA class I binding affinity; details: read-out: Measured affinity
Procedure: as §1, §2
HLA-B*55:01 = HLA-B*55:01 (Homo sapiens, UniProt P01889, A329T/C349S/D138N/D201E/E187T/E204Q/K202T/L119W/R155S/R180L/S121T/S35A/S48A/V127L/V306I/V36M/Y140L); assay: Peptide-HLA class I binding affinity; details: read-out: Measured affinity
Procedure: as §1, §2
HLA-A*03:01 = HLA-A*03:01 (Homo sapiens, UniProt P04439); assay: biochemical
Procedure: as §1, §2
HLA-C*06:02 = HLA-C*06:02 (Homo sapiens, UniProt P10321, A176E/A330V/C350S/L171W/L180W/L218V/M285V/M309V/M331V/N104K/P208H/Q277E/Q291P/R121W/S101N/S123Y/S297R/T329A/T363A/V319A/V328M); assay: Peptide-HLA class I binding affinity; details: read-out: Measured affinity
Procedure: as §1, §2
HLA-B*08:01 = HLA-B*08:01 (Homo sapiens, UniProt P01889, A93T/A95T/D138N/E176V/E187T/K202T/Q94N/R180D/S35A/V36M/Y33D/Y91F); assay: biochemical
HLA-A*01:01 = HLA-A*01:01 (Homo sapiens, UniProt P04439, A114D/A174V/A182V/D101N/D185E/E176A/E190D/L180R/Q94H/R68K/S129P/T187R/V100A/V91M/W191G); assay: Peptide-HLA class I binding affinity; details: read-out: Measured affinity
Procedure: as §1, §2
HLA-A*68:01 = HLA-A*68:01 (Homo sapiens, UniProt P04439, A269V/D185E/E176V/E277Q/E87N/F33Y/G231S/I121M/I166T/I218V/L180W/L300P/L318F/N151K/P208A/P217A/Q86R/R169H/T345S); assay: Peptide-HLA class I binding affinity; details: read-out: Measured affinity
Procedure: as §1, §2
HLA-DRB1*13:01 = HLA-DRB1*13:01 (Homo sapiens, UniProt P01903+P01911, A100E/A169T/K41T/L162R/M171V/P40S/Q125H/Q178H/Q39Y/Q99D/R42S/S66N/T262R/W38E/Y61H); assay: Peptide-HLA class II binding affinity; details: read-out: measured affinity
Procedure: as §1, §2
HLA-B*13:02 = HLA-B*13:02 (Homo sapiens, UniProt P01889, A65T/A93T/A95T/D138N/D201E/D98Y/E176V/E204Q/E69M/E70A/G107R/K202T/L105A/L119W/N104T/N87E/Q94N/R106L/R155S/R169L/R180L/S101N/S121T/S35A/S48T/V127L/V36M/Y140L/Y91S); assay: Peptide-HLA class I binding affinity; details: read-out: Measured affinity
Procedure: as §1, §2

HLA-DRB1*03:01, sequence (P01903 26-254 limits assumed, other chains not shown): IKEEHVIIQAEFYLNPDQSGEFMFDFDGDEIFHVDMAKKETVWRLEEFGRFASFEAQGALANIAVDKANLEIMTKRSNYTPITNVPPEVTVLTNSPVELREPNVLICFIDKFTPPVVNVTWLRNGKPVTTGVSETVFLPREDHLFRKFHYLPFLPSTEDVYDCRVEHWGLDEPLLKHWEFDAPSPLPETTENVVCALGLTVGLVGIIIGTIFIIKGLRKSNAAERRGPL

## CC[C@H](C)[C@H](NC(=O)[C@H](CCCCN)NC(=O)[C@@H](NC(=O)[C@H](CCCNC(=N)N)NC(=O)CNC(=O)[C@H](CCCNC(=N)N)NC(=O)[C@H](CCCNC(=N)N)NC(=O)[C@@H](N)[C@@H](C)O)C(C)C)C(=O)N[C@@H](CC(=O)O)C(=O)N[C@@H](CCC(=O)O)C(=O)N[C@H](C(=O)N[C@@H](CO)C(=O)N[C@@H](CCCNC(=N)N)C(=O)N[C@@H](CCSC)C(=O)N[C@@H](Cc1ccccc1)C(=O)O)C(C)C [IE2_356–370]
HLA-DRB3*01:01
  Kd: 2 nM
HLA-DRB1*03:01
  Kd: 9 nM

## CC[C@H](C)[C@H](NC(=O)CNC(=O)[C@@H](N)CCCCN)C(=O)N[C@@H](CCC(N)=O)C(=O)N[C@H](C(=O)N[C@H](C(=O)N[C@@H](Cc1ccc(O)cc1)C(=O)N[C@H](C(=O)N[C@@H](CCCNC(=N)N)C(=O)N[C@@H](CC(N)=O)C(=O)N[C@@H](Cc1c[nH]cn1)C(=O)N[C@@H](CCC(=O)O)C(=O)N[C@H](C(=O)N[C@@H](CCCCN)C(=O)N[C@@H](CO)C(=O)O)C(C)C)[C@@H](C)O)[C@@H](C)CC)[C@@H](C)CC [IE2_408–422]
HLA-DRB1*07:01
  Kd: 53 nM
HLA-DRB1*15:01
  Kd: 45 nM

## CSCC[C@H](NC(=O)[C@H](CC(C)C)NC(=O)[C@H](Cc1ccccc1)NC(=O)[C@@H]1CCCN1C(=O)[C@@H](NC(=O)[C@H](CO)NC(=O)[C@H](CC(C)C)NC(=O)[C@H](C)N)[C@@H](C)O)C(=O)N[C@@H](CCC(=O)O)C(=O)N[C@@H](Cc1c[nH]cn1)C(=O)N[C@H](C(=O)N[C@@H](CCSC)C(=O)N1CCC[C@H]1C(=O)N[C@H](C(=O)N[C@H](C(=O)O)[C@@H](C)O)C(C)C)[C@@H](C)O [IE2_438–452]
HLA-DRB1*01:01
  Kd: 6 nM

## CRVLCCYVL [IE1_309–317]
CD8^+ T cells
  TMRI (%): 0.8–8.0%

## EEAIVAYTL [IE1_381–389]
HLA-B*40:01
  Kd: 13 nM

## FLMEHTMPVTHPPEV [IE2_443–457]
HLA-DRB1*01:01
  Kd: 2 nM

## FPKTTNGCSQA [IE1_221–231]
HLA-B*55:01
  Kd: 138 nM

## KEVNSQLSL [IE1_42–50/IE2_42–50]
HLA-B*40:01
  Kd: 25 nM

## KLGGALQAK [IE1_184–192]
HLA-A*03:01
  Kd: 216 nM

## QIKVRVDM [IE1_88–95]
HLA-C*06:02
  Kd: 3 nM
HLA-B*08:01
  Kd: 579 nM

## QIKVRVDMV [IE1_88–96]
HLA-B*08:01
  Kd: 994 nM

## RIKEHMLKK [IE1_99–107]
HLA-A*03:01
  Kd: 542 nM

## TSDACMMTMY [IE1_290–299]
HLA-A*01:01
  Kd: 9 nM

## TTFLQTMLR [IE1_33–41/IE2_33–41]
HLA-A*68:01
  Kd: 1 nM

## VKQIKVRVDMVRHRI [IE1_86–100]
HLA-DRB3*01:01
  Kd: 109 nM
HLA-DRB1*03:01
  Kd: 4 nM

## VRHRIKEHMLKKYTQ [IE1_96–110]
HLA-DRB1*13:01
  Kd: 2 nM

## VRVDMVRHRIKEHML [IE1_91–105]
HLA-DRB1*13:01
  Kd: 2 nM
HLA-DRB3*01:01
  Kd: > 5000 nM
HLA-DRB1*03:01
  Kd: 10 nM

## YILGADPLRV [IE1_354-363]
HLA-B*13:02
  Kd: 87 nM
